Reference: patent publication US8372844B2, “Piperazinyl-propyl-pyrazole derivatives as dopamine D4 receptor antagonists, and pharmaceutical compositions containing the same” (Korea Research Institute of Chemical Technology, priority 2007, dated 2013)

Tests used:
[1] = tested on: apomorphine-induced cage climbing in mice; assay: Apomorphine-induced climbing behavior in mice; type: in vivo; details: ip 30 min prior to apomorphine (1 mg/kg, sc); for ED50: Mus musculus, read-out: Inhibitory effects on apomorphine-induced climbing behavior ED50 (mg/kg, ip)
Procedure: When mice were treated with apomorphine (1 mg/kg, sc), a potent dopamine receptor agonist, and were put into cylindrical cages (diameter, 12 cm/height, 14 cm) with the floor and wall consisting of metal bars and covered with a lid, they begin to perform repeatedly a psychotic behavior of ‘cage climbing’. Their climbing behaviors were monitored every 10 min for 30 min and scored by 4-point rating scale (0˜3 points) depending on the extent of the behavior (Costentin, J. et al., Nature 1975, 257, 405-7; Protais, P. et al., Psychopharmacology 1976, 50, 1-6).
The compounds were injected intraperitoneally into mice 30 min prior to apomorphine administration. The inhibitory effects of the compounds against control group were measured and each ED50 was calculated therefrom.

[2] = tested on: rotarod deficit in mice; assay: Rotarod deficit in mice; type: in vivo; details: ip
Procedure: (§1) Each mouse was administered with a test drug, and then placed on a 1 inch diameter knurled plastic rod rotating at 6 rpm (Ugo-Basile, Milano, Italy), and the rotarod deficit (%) was obtained by counting the number of mice fallen from the rotating rod within 1 min at 30, 60, 90, and 120 min after the administration of the drug.

[3] = biological target: 5-HT7 receptor (Homo sapiens, UniProt P34969); assay: Serotonin receptor binding experiment, 5-HT7; set-up: species or system human or rat; details: [3H]LSD 3 nM, 90 min at 27° C.; read-out: Receptor affinity (IC50, nM) 5-HT7
Procedure: (§2) The measurement of affinity for serotonin 5-HT receptor family was performed according to the experimental conditions as specified in Table 2 below using the method same as in Experimental Example 1 above.

[4] = biological target: T1, Human recombinant dopamine D2 receptor (Homo sapiens, UniProt P14416); assay: Measurement of affinity for dopamine D2 receptor ([3H]spiperone binding)
T1 construct: purchased PerkinElmer; host or cells: CHO cell line
Procedure: (§3) Human recombinant dopamine D2 and D3 receptors, which were expressed in CHO cell lines, respectively, were purchased from PerkinElmer and Euroscreen, respectively.
(§4) 50 mM Tris-HCl (pH 7.4) containing […] and 1 mM EDTA was used as a buffer solution for the measurement of affinity for dopamine D2 receptor. 50 mM Tris-HCl (pH 7.4) containing 5 mM MgCl2, 5 mM EDTA, 5 mM KCl, 1.5 mM CaCl2 and 120 mM NaCl was used as a buffer solution for the measurement of affinity for dopamine D3 receptor. For measurement of non-specific binding, 10 μM haloperidol (haloperidol) was used.

[5] = biological target: 5-HT2A receptor (Homo sapiens, UniProt P28223); assay: Serotonin receptor binding experiment, 5-HT2A; set-up: species or system human or rat; details: [3H]ketanserin 1 nM, 15 min at 37° C.; read-out: Receptor affinity (IC50, nM) 5-HT2A
Procedure: as §2

[6] = biological target: T2, Human recombinant dopamine D3 receptor (Homo sapiens, UniProt P35462); assay: Measurement of affinity for dopamine D3 receptor ([3H]spiperone binding); details: [3H]spiperone 0.8 nM, CHO cell line, 60 min at 27° C.
T2 construct: purchased Euroscreen; host or cells: CHO cell line
Procedure: as §3, §4

[7] = biological target: T3, human recombinant dopamine D4.2 receptor (Homo sapiens, UniProt P21917, DEL265-296); assay: Measurement of affinity for dopamine D4 receptor ([3H]YM-09151-2 binding); details: [3H]YM-09151-2 0.1 nM, receptor expressed in CHO-K1 cells, 120 min at 25° C.
T3 construct: purchased PerkinElmer Life and Analytical Sciences, USA; host or cells: CHO-K1 cells
T3 sequence (P21917 with tags, fused parts or gaps DEL265-296): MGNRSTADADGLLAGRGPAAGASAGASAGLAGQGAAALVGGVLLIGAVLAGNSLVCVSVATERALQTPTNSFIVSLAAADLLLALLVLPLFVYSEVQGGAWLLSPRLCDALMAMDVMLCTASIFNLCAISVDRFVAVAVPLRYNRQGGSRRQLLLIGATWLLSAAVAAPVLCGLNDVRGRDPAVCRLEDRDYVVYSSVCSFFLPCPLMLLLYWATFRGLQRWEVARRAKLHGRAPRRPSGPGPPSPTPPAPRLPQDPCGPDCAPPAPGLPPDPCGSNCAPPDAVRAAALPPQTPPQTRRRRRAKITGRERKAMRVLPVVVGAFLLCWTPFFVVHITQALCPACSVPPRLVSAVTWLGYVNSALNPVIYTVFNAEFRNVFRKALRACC
Procedure: The affinities of the compounds for dopamine D4 receptor were measured by using human recombinant dopamine D4.2 receptor (PerkinElmer Life and Analytical Sciences, USA) expressed in CHO-K1 cells, and [^3H]YM-09151-2 (PerkinElmer) was used as a radioactive ligand.
50 mM Tris-HCl (pH 7.4) containing 120 mM NaCl, 5 mM KCl, 5 mM MgCl2 and 1 mM EDTA was used as a buffer solution for the analysis of receptor binding. [^3H] YM-09151-2 binding reactions were performed in a 96-well plate format.
For drug screening, a reaction mixture with a final volume of 0.25 mL was prepared by mixing a compound of the present invention, D4 receptor membrane (43 μg/well), [^3H] YM-09151-2 (0.1 nM), 50 mM Tris-HCl (pH 7.4) and the like. The reaction mixture was incubated for 120 min at 25° C., and then promptly passed through Wallac GF/C glass fiber filter (Wallac, Finland), which was already wetted in 0.5% PEI, by using Inotech harvester (Inotech) to terminate the reaction, and then washed with cold 50 mM Tris-HCl buffer solution. The filter was then covered with MeltiLex, sealed in a sample bag, and then dried in an oven. The radioactivity retained in the filter was finally counted using MicroBeta Plus, Wallac.
The affinity (IC50) of a compound for the receptor was calculated via nonlinear regression analysis of sigmoidal dose-response equation with the data obtained from three independent experiments (GraphPad Prism Program, San Diego, USA), which are carried out using 7-8 different concentrations of the compound in duplicate. Nonspecific binding was measured in the presence of 10 μM clozapine.

[8] = biological target: 5-HT6 receptor (Homo sapiens, UniProt P50406); assay: Serotonin receptor binding experiment, 5-HT6; set-up: species or system human or rat; details: [3H]LSD 1.8 nM, 60 min at 37° C.; read-out: Receptor affinity (IC50, nM) 5-HT6
Procedure: as §2

[9] = biological target: T4, 5-HT2C receptor (Homo sapiens, UniProt P28335); assay: Serotonin receptor binding experiment, 5-HT2C; set-up: species or system human or rat; details: [3H]Mesulergine 1 nM, 30 min at 37° C.; read-out: Receptor affinity (IC50, nM) 5-HT2C
T4 sequence (P28335 33-458): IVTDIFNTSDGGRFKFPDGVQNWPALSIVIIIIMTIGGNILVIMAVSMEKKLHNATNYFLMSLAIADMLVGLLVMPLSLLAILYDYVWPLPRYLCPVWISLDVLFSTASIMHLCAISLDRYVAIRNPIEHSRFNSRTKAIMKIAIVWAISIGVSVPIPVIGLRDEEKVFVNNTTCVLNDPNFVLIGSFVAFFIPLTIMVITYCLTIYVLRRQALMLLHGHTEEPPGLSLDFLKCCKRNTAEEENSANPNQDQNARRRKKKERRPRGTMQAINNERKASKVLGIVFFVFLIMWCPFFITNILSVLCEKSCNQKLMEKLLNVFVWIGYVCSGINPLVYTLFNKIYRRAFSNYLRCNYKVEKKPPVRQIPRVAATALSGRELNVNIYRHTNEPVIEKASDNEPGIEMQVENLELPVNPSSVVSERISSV
Procedure: as §2

[10] = biological target: T5, 5-HT1A receptor (Homo sapiens, UniProt P08908); assay: Serotonin receptor binding experiment, 5-HT1A; set-up: species or system human or rat; details: [3H]8-OH-DPAT 0.5 nM, 60 min at 27° C.; read-out: Receptor affinity (IC50, nM) 5-HT1A
T5 sequence (P08908 1-422): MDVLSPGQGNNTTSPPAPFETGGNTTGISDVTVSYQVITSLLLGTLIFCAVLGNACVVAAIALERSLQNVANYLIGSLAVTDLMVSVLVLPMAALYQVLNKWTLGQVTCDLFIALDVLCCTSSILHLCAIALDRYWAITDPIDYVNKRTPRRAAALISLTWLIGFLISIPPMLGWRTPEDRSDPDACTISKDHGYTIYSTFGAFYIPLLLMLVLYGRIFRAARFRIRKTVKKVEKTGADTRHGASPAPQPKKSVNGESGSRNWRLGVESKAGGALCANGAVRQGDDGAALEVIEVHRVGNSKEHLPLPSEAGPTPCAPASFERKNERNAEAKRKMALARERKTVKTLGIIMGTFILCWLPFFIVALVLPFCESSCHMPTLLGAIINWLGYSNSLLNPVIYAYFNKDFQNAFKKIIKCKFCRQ
Procedure: as §2

[11] = Rotarod deficit in mice; type: in vivo; details: mouse, in vivo; mice, ip, rod rotating at 6 rpm, 30-120 min after administration
Procedure: as §1

T1 sequence (P14416 whole entry): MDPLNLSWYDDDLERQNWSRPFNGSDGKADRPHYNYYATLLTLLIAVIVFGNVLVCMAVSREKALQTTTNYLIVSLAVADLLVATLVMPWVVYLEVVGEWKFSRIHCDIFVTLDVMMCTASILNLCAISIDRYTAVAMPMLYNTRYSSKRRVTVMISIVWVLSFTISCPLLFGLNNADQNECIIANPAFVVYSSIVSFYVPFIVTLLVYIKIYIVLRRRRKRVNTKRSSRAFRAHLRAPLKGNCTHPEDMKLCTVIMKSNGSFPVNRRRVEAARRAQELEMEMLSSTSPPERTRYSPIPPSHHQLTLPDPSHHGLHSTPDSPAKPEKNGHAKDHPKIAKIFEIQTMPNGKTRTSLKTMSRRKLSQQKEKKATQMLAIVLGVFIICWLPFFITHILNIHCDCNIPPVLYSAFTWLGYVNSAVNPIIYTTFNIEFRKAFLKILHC
Chain of 5-HT7 receptor (P34969 whole entry): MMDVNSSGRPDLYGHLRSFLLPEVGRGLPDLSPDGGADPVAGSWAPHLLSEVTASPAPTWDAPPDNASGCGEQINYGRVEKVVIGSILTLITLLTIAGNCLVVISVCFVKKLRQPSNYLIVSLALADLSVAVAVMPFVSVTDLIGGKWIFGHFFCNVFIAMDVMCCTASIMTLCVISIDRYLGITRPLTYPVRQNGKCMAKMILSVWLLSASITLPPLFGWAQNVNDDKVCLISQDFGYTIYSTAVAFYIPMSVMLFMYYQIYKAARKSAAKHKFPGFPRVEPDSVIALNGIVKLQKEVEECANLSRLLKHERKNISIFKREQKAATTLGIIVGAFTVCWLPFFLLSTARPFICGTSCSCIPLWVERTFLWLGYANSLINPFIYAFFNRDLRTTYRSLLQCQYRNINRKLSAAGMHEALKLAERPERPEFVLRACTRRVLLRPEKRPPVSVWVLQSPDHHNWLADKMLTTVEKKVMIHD
Chain of 5-HT6 receptor (P50406 whole entry): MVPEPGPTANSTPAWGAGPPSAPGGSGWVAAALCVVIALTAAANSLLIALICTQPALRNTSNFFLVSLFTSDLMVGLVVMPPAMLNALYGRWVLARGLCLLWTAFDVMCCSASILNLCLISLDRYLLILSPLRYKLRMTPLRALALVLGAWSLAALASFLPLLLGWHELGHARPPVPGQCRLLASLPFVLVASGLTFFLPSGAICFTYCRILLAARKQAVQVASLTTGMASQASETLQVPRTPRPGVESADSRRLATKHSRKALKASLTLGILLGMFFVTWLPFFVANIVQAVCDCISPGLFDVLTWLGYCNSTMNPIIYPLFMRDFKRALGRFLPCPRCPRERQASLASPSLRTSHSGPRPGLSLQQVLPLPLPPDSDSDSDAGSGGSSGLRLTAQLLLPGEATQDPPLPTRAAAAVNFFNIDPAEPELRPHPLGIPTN
T2 sequence (P35462 whole entry): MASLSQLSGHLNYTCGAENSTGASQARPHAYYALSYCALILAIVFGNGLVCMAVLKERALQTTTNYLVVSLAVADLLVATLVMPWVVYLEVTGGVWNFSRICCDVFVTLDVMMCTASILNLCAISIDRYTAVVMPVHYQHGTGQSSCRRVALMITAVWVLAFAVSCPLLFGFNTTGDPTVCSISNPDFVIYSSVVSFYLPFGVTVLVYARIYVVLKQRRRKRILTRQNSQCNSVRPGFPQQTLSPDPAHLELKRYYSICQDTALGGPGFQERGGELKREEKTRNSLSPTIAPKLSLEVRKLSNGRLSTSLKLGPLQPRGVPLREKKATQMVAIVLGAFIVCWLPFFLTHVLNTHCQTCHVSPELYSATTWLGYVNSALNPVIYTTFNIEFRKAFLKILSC
Chain of 5-HT2A receptor (P28223 whole entry): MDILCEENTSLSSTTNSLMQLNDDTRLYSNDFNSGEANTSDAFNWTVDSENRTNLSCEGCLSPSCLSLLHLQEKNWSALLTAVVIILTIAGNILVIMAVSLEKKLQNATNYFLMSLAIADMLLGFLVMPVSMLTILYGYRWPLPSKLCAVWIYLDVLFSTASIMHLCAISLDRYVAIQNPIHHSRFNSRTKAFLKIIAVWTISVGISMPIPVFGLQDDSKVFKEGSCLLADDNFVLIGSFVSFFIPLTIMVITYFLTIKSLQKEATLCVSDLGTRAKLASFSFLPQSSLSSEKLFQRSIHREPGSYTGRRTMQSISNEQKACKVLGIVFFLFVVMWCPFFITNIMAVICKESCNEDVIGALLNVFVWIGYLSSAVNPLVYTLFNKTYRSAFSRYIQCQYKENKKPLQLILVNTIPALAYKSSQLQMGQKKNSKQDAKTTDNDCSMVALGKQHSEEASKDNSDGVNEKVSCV

SMILES	ED50 [1]	Inhibitory effects on apomorphine-induced climbing behavior ED50 (mg/kg, ip) [1]	rotarod deficit TD50 as times of ED50 for antipsychotic efficacy ([2]; mouse, in vivo)	IC50 [3]	affinity for D2 receptors (in words) [4]	IC50 ([4]; [3H]spiperone 0.5 nM, CHO cell line, 60 min at 27° C.)	IC50 [5]	IC50 [6]	IC50 [7]	IC50 [8]	IC50 [9]	IC50 [10]	TD50 [11]	rotarod deficit TD50 as times of ED50 for antipsychotic efficacy ([2]; mice)
CCCc1cc(CCCN2CCN(c3ccc(Cl)cc3)CC2)n(-c2ccccc2)n1 [Compound 157, 1-(4-chlorophenyl)-4-(3-(1-phenyl-3-propyl-1H-pyrazol-5-yl)propyl)piperazine]	8.8 to 14.5 mg/kg	14.5 mg/kg	2.2-5 times											
CCCc1cc(CCCN2CCN(c3ccc(Cl)c(Cl)c3)CC2)n(-c2ccccc2)n1 [Compound 163, 1-(3,4-dichlorophenyl)-4-(3-(1-phenyl-3-propyl-1H-pyrazol-5-yl)propyl)piperazine]				651 nM	extremely poor affinity	1060 nM	45 nM	420 nM	0.0077 µM	617 nM	558 nM	494 nM		
CN1CCN(C2=Nc3cc(Cl)ccc3Nc3ccccc32)CC1 [clozapine, reference compound]	4 mg/kg												3.9 mg/kg	almost same
